Patent publication US9446066B2, “Methods for reducing pulmonary uptake of intravenously injected cells” (priority 2010, dated 2016)
Where “and” joins values, the source holds several entries; their conditions need not be identical. Equal values may be shown once.

Experiments:
[1] = system: Porcine T-lymphoblasts; assay: T-lymphoblast labeling and in vitro retention of [18F]FDG; format: cell-based; conditions: mono-exponential fit, R^2=0.99; 6 time points over 120 minutes
Description: (§1) [^18F]FDG (t1/2=109.8 min) was prepared according to standard procedures (TRACERIab FxFDG, GE Medical Systems, USA). Cells were incubated with [^18F]FDG in 7-10 mL PBS for 60 minutes at 37° C. before being washed to remove excess radioactivity.
The retention (the rate of tracer washout through GLUTs after dephosphorylation of [^18F]FDG-6P) was measured in triplicates at 6 different time points over 120 minutes and the retention half-life was estimated by fitting the data to a mono-exponential curve.

[2] = system: T-lymphoblasts; assay: PET-examination of lung uptake and distribution of transfused [18F]FDG-labeled T-lymphoblasts; format: in vivo, pig; conditions: for pulmonary uptake of T-lymphoblasts compared to intravenous administration alone (in words): pre-incubation and intravenous co-administration with dextran sulfate
Description: In this study we present a method to monitor transfusion of T-lymphoblasts in vivo in a porcine model by PET-imaging. Porcine T-lymphoblasts were labeled with [^18F]FDG prior to administration, and the kinetics and bio-distribution of the cells was monitored for up to 2 hours. [^18F]FDG is a functional analogue to glucose, but cannot be metabolized further than the initial phosphorylation by hexokinase and is trapped in the cell cytoplasm. The same concept has been applied by our group to image transplantation of islets of Langerhans in a porcine model and in the clinical setting.
In the present work, three modes of administration were compared; intravenous administration with or without co-administration of the complement and coagulatory inhibitor low molecular weight dextran sulphate (LMW-DS), and intraarterial administration.
Spleens from three months old pigs were surgically resected and stored in PBS for immediate preparation. Spleens were cut into smaller fragments and mashed first against a 1 mm steel mesh and a second time with a syringe rubber plunger against a fine nylon mesh. The tissue was resuspended in PBS and the T-lymphoblasts were isolated using Ficoll-Paque (GE-Healthcare Uppsala, Sweden) density gradient centrifugation. All T-lymphoblasts were activated with PHA (1 μg/mL) (Invitrogen, Carlsbad, Calif., USA) to simulate the clinical setting of adoptively transferred tumor infiltrating lymphocytes.
T-lymphoblasts were suspended in 10-15 mL of PBS and administered over 10 minutes either intravenously into the internal jugular vein (n=5) or intraarterially into the ascending aorta (n=1). Two of the pigs given intravenous administration were pretreated with LMW-DS (4.5 mg/kg) (Apoteket AB, Umeå, Sweden). The T-lymphoblasts were in these two cases co-administered intravenously together with LMW-DS (9 mg/kg, followed by continuous infusion of 7.2 mg/kg/h).
as §1
Six pigs were examined by PET after administration of [^18F]FDG-labeled T-lymphoblasts. A GE Discovery ST PET/CT scanner (n=3) or a Hamamatsu SHR-7700 scanner (n=3) was used. Dynamic sequences were acquired over the lungs and liver for up to 120 minutes. The kinetic data obtained was expressed as absolute number of cells or the percentage of administered cells. Results are given as averages±SEM.
The concentration and total amount of cells trapped in lung tissue could be quantified. Table 1 presents the amount of T-lymphoblasts in the lungs at 30 minutes. Between 80 and up to 635 million cells (16 to 79% of the grafts) was trapped in lung tissue after administration. To quantify the amount of cells trapped in hotspots we defined two levels of density: hotspots with a cellular density over either 250.000 cells/cc (moderate density) or over 500.000 cells/cc (high density).

[3] = human patients, following an administration of dextran sulfate; cited from earlier work
[4] = range over the two LMW-DS pigs, lungs at 30 minutes

OC[C@H]1OC(O)[C@H]([18F])[C@@H](O)[C@@H]1O (stereo partly drawn) [[^18F]FDG, ^18F-2-fluoro-2-deoxy-D-glucose]
[18F]FDG retention half-life [1]: 5.32 h

low molecular weight dextran sulfate [LMW-DS]
% of cells in lungs ([2]; at 30 minutes, single pig): 16.3% and 31.8% | lung uptake (% of the administered T-lymphoblasts), average ([2]; at completed transfusion, intravenous co-administration of LMW-DS, pretreated pigs, n=2): 36.6% | pulmonary uptake of T-lymphoblasts compared to intravenous administration alone (in words) [2]: lower | pulmonary uptake of T-lymphoblasts compared to intravenous administration alone (in words) ([2]; listed as dextran sulfate): decreased | amount of cells in high density hotspots [2, 4]: 0-111 million cells | cells in high density hotspots as % of lung uptake [2, 4]: 0-39% | APTT safely achieved [3]: about 250 s
